In patent US20120128770A1, “TREATMENT OF INSULIN RESISTANCE AND OBESITY BY STIMULATING GLP-1 RELEASE” (Kobenhavns Universitet, priority 2009, published 2012):

How the values were obtained:
tGLP-1 release = assay: Clinical experiment: duodenal bolus in healthy male volunteers, plasma tGLP-1 release; type: in vivo, human; settings: for plasma tGLP-1 levels during the first 25 minutes: duodenal bolus, compared to vehicle
Method: FIG. 4. Stimulation of tGLP-1 release by 2OG in the intestinal lumen. Eight healthy male volunteers were given enteral feeding by duodenal tube. Each volunteer was given three different liquid meals (two grams of 2OG(▴), 1.54 grams of oleic (∘) acid or vehicle (⋄)) on three different days. The vehicle consisted of 50 ml glycerol plus 5 ml ethanol. Data are mean values±SEM and were analysed by repeated measurements ANOVA.
8 healthy male volunteers (20-30 years, BMI 20-25) that had fasted 10 hours, were given enteral feeding by duodenal tube. The liquid meals were prepared 5 min before use. Each volunteer was given three different liquid meals (clear solution, bolus 55 ml) on three different days (A-C).
Day A: 2OG (2 g) in 50 ml glycerol+5 ml ethanol Day B: oleic acid (1.54 g) in 50 ml glycerol+5 ml ethanol Day C: 50 ml glycerol+5 ml ethanol Blood Samples were collected at the following points (min): −15, −10, 0, 10, 20, 30, 40, 50, 60, 75, 90, 120, 150, 180, 240.
In serum was measured: insulin and C-peptide
In plasma was measured: glucose, tGLP-1, Cholecystokinin (CCK).
The methods for these assays have been described previously (ref 18).

human GPR119 receptor [1] = target: T1, human GPR119 receptor (Homo sapiens, UniProt Q8TDV5); assay: Ligand-induced GPR119 activation, cAMP accumulation (3H-adenine) in transiently transfected COS-7 cells; type: cell-based; parameters: expressed in transfected cells; host or cells: COS-7
T1 sequence (Q8TDV5 1-335): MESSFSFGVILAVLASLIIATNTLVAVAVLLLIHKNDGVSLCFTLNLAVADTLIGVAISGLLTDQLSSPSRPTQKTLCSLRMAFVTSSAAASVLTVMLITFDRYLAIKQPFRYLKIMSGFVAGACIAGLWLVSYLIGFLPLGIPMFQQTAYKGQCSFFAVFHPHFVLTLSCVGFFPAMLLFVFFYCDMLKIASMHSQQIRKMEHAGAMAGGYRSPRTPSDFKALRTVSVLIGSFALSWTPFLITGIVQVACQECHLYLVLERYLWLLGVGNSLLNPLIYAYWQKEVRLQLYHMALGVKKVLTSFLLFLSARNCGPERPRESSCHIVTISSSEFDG
Method: Three different ligands were tested: (C) oleoylethanolamide (OEA), (A) 2-oleoylglycerol (2OG), and (D) oleic acid, by measurement of cAMP accumulation. Briefly, COS-7 cells were transiently transfected with the human GPR119 receptor (squares) or empty vector (negative control, triangle). The cells were seeded in plates one day after transfection, incubated for 24 hours with 2 μCi/ml of ^3H-adenine. At the day of the cAMP measurement, the cells incubated with the ligands for 25 minutes, lysed, and the cAMP purified using Dowex and alumina columns. The data represent sum-curves of three independent experiments (n=3), performed in duplicates. All dose-response curves were normalized to the efficacy of OEA in each experiment, and the data are shown as ligand-induced activation above basal receptor activity.
Briefly, COS-7 cells were transiently transfected with human GPR119 receptor (squares) or empty vector (negative control, triangle). The cells were seeded in plates one day after transfection, incubated for 24 hours with 2 μCi/ml of ^3H-adenine. At the day of the cAMP measurement, the cells were incubated with the ligand for 25 minutes, lysed, and the cAMP purified using Dowex and alumina columns. The data represent sum-curves of the 7 independent experiments, performed in duplicates.
GPR119 receptor signalling experiments were carried out using COS-7 cells transiently transfected with the human GPR119 receptor. The COS-7 cells were grown at 10% CO2 and 37° C. in Dulbecco's modified Eagle's medium with glutamax (Gibco, Cat. No 21885-025) adjusted with 10% fetal bovine serum (FBS), 180 u/ml penicillin and 45 ug/mL streptomycin (PenStrep). Transfection of the COS-7 cells was performed by the calcium phosphate precipitation method. The cells were seeded in 24 well plates (1.5×10^5 cells/well) one day after transfection, and were subsequently incubated for 24 hours with 2 μCi/ml of 3H-adenine in 0.5 ml growth medium per well. At the day of the cAMP measurement, the cells were washed twice in HBS buffer (25 mM Hepes, pH 7.2, supplemented with 0.75 mM NaH2PO4, 140 mM NaCl and 0.05% (w/v) bovine serum albumin), and 0.5 ml HBS buffer supplemented with 1 mM of the phosphodiesterase inhibitor IBMX (3-isobutyl-1-methylxanthine, Sigma chemicals Co., St. Louis, Mo., USA) was added together with increasing concentrations of the different compounds (2OG, 1OG, OEA, oleic acid or 2-PG). After 25 min incubation at 37° C., the cells were placed on ice, the medium was removed, and the cells were lysed in 1 ml of 5% (w/v) trichloroacetic acid, supplemented with 0.1 mM cAMP and 0.1 mM ATP for 30 min. The lysate mixtures were loaded onto Dowex columns (Bio-Rad, Hercules, Calif., USA), which were washed with 2 ml of water and placed onto the top of alumina columns (Sigma) and washed again with 10 ml of water. The alumina columns were eluted with 6 ml of 0.1 M imidazole into 15 ml scintillation fluid (Highsafe III). Columns were re-used up to 15 times. Dowex columns were regenerated by adding 10 ml of 2 N HCl followed by 10 ml of water; the alumina columns were regenerated by adding 2 ml of 1 M imidazole, 10 ml of 0.1 M imidazole, and finally 5 ml of water. Determinations were made in duplicate.

human GPR119 receptor [2] = target: T1, human GPR119 receptor; assay: Ligand-induced GPR119 activation, cAMP formation (HTRF) in CHO-K1 cells; type: cell-based; parameters: expressed in transfected cells; settings: for cAMP formation / GPR119 activation in words: CHO-K1 cells transiently expressing GPR119, FIG. 1; for EC50: CHO-K1 cells, cAMP formation
Method: FIG. 1. Ligand-induced GPR119 activation in CHO-K1 cells. Five different ligands were tested. Oleoylethanolamide, H-1: 2-oleoylglycerol, H-2: 1-oleoyleglycerol, H-4: oleic acid, and H-5: 2-palmitoylglycerol. cAMP was measured by a HTRF kit from CisBio International. Three experiments (each in duplicate) were performed using oleoylethanolamide as positive control in each experiment. All dose-response curves were normalized to the efficacy of OEA in each experiment, and the data are shown as ligand-induced activation above basal receptor activity.
GPR119 receptor signalling experiments were carried out using CHO-K1 cells transiently transfected with the human GPR119 receptor. CHO-K1 cells expressing GPR119 grown to mid-log phase prior to the test in culture media without antibiotics and supplemented with doxycycine (final concentration 200 ng/ml) were detached be gentle flushing with PBS-EDTA (5 mM EDTA), recovered by centrifugation and resuspended in Ham's F12 culture medium containing 10% FCS and no antibiotic. Cells were counted, centrifuged in a 50 ml Falcon tube and resuspended in KRH-IBMX (5 mM KCL, 1.25 mM MgSO4, 124 mM NaCl, 25 mM HEPES, 13.3 mM glucose, 1.25 mM KH2PO4, 1.45 mM CaCl2, 0.6 mg/ml BSA and […] Phenol red, pH 7.4) at a concentration of 6.25×10^5 cells/ml. Cells were then filled in 96 well plates (total vol 24 μl/well) and stimulated with agonists in serial dilution for 30 min. cAMP was then measured using a HTRF kit from CisBio International (cat no. 62AM2PEB). Determinations were made in duplicate.

[3] = COS-7 cells, cAMP formation, n = 3, read-out: EC-values for activation of GPR119, COS-cells (n = 3)
[4] = transiently transfected COS-7 cells, Table 2, read-out: EC50 for activation of GPR119
[5] = experiment 1, read-out: EC-values for activation of GPR119, CHO-exp-1
[6] = experiment 2, read-out: EC-values for activation of GPR119, CHO-exp-2
[7] = experiment 3, read-out: EC-values for activation of GPR119, CHO-exp-3

Row | SMILES | plasma cholecystokinin levels (tGLP-1 release; comparison between groups, data not shown) | plasma tGLP-1 levels during the first 25 minutes (tGLP-1 release; fasted volunteers) | incremental area under the curve (iAUC) of tGLP-1 for the first 25 min (tGLP-1 release; healthy male volunteers, duodenal tube, 2 g 2OG or 1.54 g oleic acid in 50 ml glycerol + 5 ml ethanol, mean±SEM) [nM×25 min] | plasma levels of glucose (tGLP-1 release; increase after 25 min in all three groups, comparison between groups, data not shown) | insulin or c-peptide levels (tGLP-1 release; serum, fasted volunteers, data not shown) | EC50 (human GPR119 receptor [1]; [3]) [nM] | GPR119 agonism (efficacy normalized to OEA) (human GPR119 receptor [1]; cAMP formation, COS-7 cells (also CHO-K1)) | EC50 (human GPR119 receptor [1]; [4]) [nM] | cAMP formation / GPR119 activation in words (human GPR119 receptor [2]) | EC50 (human GPR119 receptor [2]; [5]) [nM] | EC50 (human GPR119 receptor [2]; [6]) [nM] | EC50 (human GPR119 receptor [2]; [7]) [nM]
1 | CCCCCCCC/C=C\CCCCCCCC(=O)OC(CO)CO [2-Oleoylglycerol, 2-oleoylglycerol] | no difference | significant increased levels of tGLP-1 | 0.07±0.02 | no difference between groups | no effect | 2800 | full agonist | 4200 | increase cAMP formation | 1550 | 1120 | 
2 | CCCCCCCCCCCCCCCC(=O)OC(CO)CO [2-palmitolyglycerol (2PG), 2-palmitoylglycerol] |  |  |  |  |  |  |  | > 30000 | activator of GPR119 |  |  | 
3 | CCCCCCCC/C=C\CCCCCCCCOC(CO)CO [2OG-ether] |  |  |  |  |  |  |  | 7900 |  |  |  | 
4 | CCCCCCCC/C=C\CCCCCCCC(=O)NCCO [Oleoylethanolamide, oleoylethanolamide, reference compound] |  |  |  |  |  | 1400 |  |  |  | 1430 | 4650 | 1670
5 | CCCCCCCC/C=C\CCCCCCCC(=O)O [oleic acid, reference compound] |  | did not increase plasma levels of GLP-1 |  |  |  | 32600 |  | > 30000 |  |  |  | > 30000
